Broadly, the melting point is the temperature, or range, at which the solid turns liquid.

Counter-ions that a name gives are not always drawn.

We go through four molecules from US7012098B2, “Inhibitors of inducible nitric oxide synthase for chemoprevention and treatment of cancers” (Pharmacia Corporation, priority 2001, dated 2006).

For data set [1], the target named is i-NOS (Homo sapiens, UniProt P35228). The data set is described as follows: i-NOS inhibition, comparison with NIL amides. Format: biochemical. Particulars: compared with NIL amide or NIL dimethylamide.
Chain of i-NOS (P35228 whole entry): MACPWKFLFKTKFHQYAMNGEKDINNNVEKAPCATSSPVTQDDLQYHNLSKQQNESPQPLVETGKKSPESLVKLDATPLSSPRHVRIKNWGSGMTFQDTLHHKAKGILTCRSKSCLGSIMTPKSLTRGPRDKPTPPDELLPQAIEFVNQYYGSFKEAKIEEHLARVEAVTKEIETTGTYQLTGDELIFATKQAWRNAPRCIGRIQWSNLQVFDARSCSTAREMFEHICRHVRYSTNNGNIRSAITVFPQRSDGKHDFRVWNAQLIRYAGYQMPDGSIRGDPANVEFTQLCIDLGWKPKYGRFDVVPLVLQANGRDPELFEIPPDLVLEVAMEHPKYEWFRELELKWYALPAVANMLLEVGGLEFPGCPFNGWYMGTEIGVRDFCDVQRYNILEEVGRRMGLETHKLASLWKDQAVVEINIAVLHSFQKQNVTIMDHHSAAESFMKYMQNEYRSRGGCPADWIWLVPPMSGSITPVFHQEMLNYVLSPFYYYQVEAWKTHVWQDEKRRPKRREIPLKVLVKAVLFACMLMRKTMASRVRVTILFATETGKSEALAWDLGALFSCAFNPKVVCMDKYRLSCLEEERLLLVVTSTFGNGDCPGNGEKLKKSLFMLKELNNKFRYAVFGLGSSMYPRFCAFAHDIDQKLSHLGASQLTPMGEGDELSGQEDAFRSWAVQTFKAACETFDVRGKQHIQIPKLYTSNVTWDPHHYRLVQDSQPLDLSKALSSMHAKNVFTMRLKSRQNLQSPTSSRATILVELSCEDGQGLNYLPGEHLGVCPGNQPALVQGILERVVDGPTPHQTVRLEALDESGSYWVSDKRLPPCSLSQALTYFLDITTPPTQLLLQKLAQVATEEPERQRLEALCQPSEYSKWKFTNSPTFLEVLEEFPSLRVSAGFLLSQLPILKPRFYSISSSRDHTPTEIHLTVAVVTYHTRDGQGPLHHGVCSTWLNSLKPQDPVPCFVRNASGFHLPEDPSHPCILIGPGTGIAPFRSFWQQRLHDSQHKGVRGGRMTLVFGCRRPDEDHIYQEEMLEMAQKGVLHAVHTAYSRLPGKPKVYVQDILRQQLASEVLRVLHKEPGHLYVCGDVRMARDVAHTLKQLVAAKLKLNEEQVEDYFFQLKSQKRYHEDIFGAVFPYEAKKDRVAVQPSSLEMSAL
Data set [2] deals with intestinal tumorigenesis. The conditions noted are these: APC^Δ716 mice; cited from earlier work.
Data set [3] deals with AOM-induced colonic ACF. The data set is described as follows: Chemopreventive effects in rats with azoxymethane-induced aberrant crypt foci. It is filed as in vivo, male F344 rats. The text has this: In Vivo Assay of Chemopreventive Effects of Therapeutic Compounds in Rats with Azoxymethane-induced Aberrant Crypt Foci
Azoxymethane (AOM) (CAS:25843-45-2) was purchased from Ash Stevens (Detroit, Mich.). iNOS and COX-2 selective inhibitors were provided by Pharmacia, (St. Louis, […].). Sulindac, a non-selective inhibitor of COX-isoforms and a known inhibitor of colon carcinogenesis, was supplied by the Chemoprevention Branch of the National Cancer Institute (Bethesda, Md.). Weanling male F344 rats were purchased from Charles River Breeding Laboratories (Kingston, N.Y.). All ingredients of the semipurified diet were obtained from Dyets Inc., (Bethlehem, Pa.) and were stored at 4° C. until the experimental diets were prepared. The rats were held in quarantine for 1 week and had access to modified AIN-76A semipurified control diet (Reddy et al., Cancer Res. 50: 2562-2568, 1990, which is herein incorporated by reference.). They were randomly distributed into various dietary groups and were transferred to an animal holding room where they were housed, three rats to a plastic cage, under controlled conditions of a 12-h light/12-h dark cycle, 50% relative humidity and 21° C. room temperature. Experimental diets were prepared by mixing chemopreventive agents with modified AIN-76A control diet.
To quantify aberrant crypt foci, after a minimum of 24 h in buffered formalin, the colons were cut into 2-cm segments starting at the anus; for the next 5-10 min they were placed in a Petri dish containing 0.2% methylene blue in Krebs Ringer solution. They were then placed, mucosal side up, on a microscope slide and observed through a light microscope. Aberrant crypt foci were recorded according to standard procedures that are being used routinely in our laboratory (Rao et al., Carcinogenesis 21: 617-21, 2000; Rao et al., Cancer Res. 53:4182-88, 1993, which are herein incorporated by reference.). […] The parameters used to assess the aberrant crypts were their occurrence and multiplicity. Crypt multiplicity was determined as the number of crypts in each focus and categorized as containing up to 3, or 4 or more aberrant crypts/focus.

Data set [4] relates to NOS. Put plainly: Colonic mucosal NOS activity after dietary treatment. Format: in vivo, male F344 rats. The conditions noted are these: 1800 ppm in diet; AOM-treated rats, colonic mucosa; Mean ± SEM. How it is done: (§1) In Vivo Assay of Modulation of Colonic Mucosal Activities of NOS and COX isoforms by iNOS and COX-2 Inhibitors
(§2) NOS and iNOS activities were determined in colonic samples as prepared and described above. Conversion of L-arginine to L-citrulline was measured by a modification of an earlier described method (Rao et al, Carcinogenesis 21, supra; Ambs et al., Cancer Res. 58:334-41, 1998, which is herein incorporated by reference). The assay was carried out by adding 100 μg sample protein to 150 μl of assay buffer [50 mM HEPES, 1 mM DTT, 1 mM MgCl2, 5 mg/L pepstatin A, 0.1 mM PMSF, and 3 mg/L aprotinin, pH 7.4] containing 70 μM arginine, 250,000 dpm L-[^3H]-arginine, 2 mM NADPH, 5μM tetrahydro biopterin, 5 μM flavin adenine dinucleotide, and 0.5 mM CaCi2 to measure total NOS activity, or 1 mM EGTA (without calcium) to determine Ca+^2-independent iNOS activity. After 30 min at 37° C., the reaction was stopped with 100 μl of 1M trichloroacetic acid. Then the samples were adjusted to pH 4.6 by adding 500 μl of 20 mM HEPES and loaded on to Dowex AG 50W-X8 resin columns. L-[^3H]-citrulline was eluted and separated on TLC. Radioactivity was counted by a BioScan Radiomatic detector. Results are expressed as pmol L-[^3H]-citrulline released/mg protein/min.

In data set [5] the target is iNOS (Rattus norvegicus, UniProt Q06518). The data set is described as follows: Colonic mucosal iNOS activity after dietary treatment. It is filed as in vivo, male F344 rats. As for the experimental part:
as §1, §2

Data set [6] has as its target T1, COX-1 (Rattus norvegicus, UniProt Q63921).
T1 sequence (Q63921 27-602): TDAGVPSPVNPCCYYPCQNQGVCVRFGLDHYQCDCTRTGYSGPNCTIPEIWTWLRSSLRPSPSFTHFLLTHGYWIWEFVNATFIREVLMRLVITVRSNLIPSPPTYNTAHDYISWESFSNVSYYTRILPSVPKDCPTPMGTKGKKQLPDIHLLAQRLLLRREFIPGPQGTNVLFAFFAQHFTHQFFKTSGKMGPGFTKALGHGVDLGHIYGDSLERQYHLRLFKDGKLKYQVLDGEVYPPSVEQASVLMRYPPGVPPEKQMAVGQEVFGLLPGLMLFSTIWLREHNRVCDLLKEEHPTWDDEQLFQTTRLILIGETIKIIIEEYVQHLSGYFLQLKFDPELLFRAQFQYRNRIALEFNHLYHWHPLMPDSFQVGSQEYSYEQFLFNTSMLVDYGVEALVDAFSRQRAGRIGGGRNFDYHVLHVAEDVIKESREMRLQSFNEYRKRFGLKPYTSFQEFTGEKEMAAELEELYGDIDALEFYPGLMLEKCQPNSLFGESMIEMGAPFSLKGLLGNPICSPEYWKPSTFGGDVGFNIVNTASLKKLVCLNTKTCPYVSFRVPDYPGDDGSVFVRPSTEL
Put plainly: Colonic mucosal COX-1 activity after dietary treatment. Format: in vivo, male F344 rats. The conditions noted are these: 1800 ppm in diet; AOM-treated rats, colonic mucosa; Mean ± SEM. As for the experimental part:
(§3) For determining COX-2 activity, proteins were preincubated with 50 μM of aspirin to block the activity of COX-1. After incubation at 37° C. for 15 min, the reaction was terminated by adding 40 μl of 0.2 M HCl. The COX-mediated metabolites of arachidonic acid were extracted with ethyl acetate (3×0.5 ml). The combined extracts were evaporated to dryness under N2, redissolved in chloroform, and subjected to thin layer chromatography on precoated TLC plastic plates (silica G 60, 20×20 cm, layer thickness 150 μm). […] The metabolites of ^14C-AA corresponding to PGE2, PGF2α, PGD2, 6-Keto PGF1α, and TXB2 were detected by their comigration (Rf-values) with authentic standards. The area of each metabolite was determined in a Bioscan System 200 image scanning counter (Bioscan Inc., Washington, D.C.) equipped with β-detector.

Data set [7] addresses T2, COX-2 (Rattus norvegicus, UniProt P35355).
T2 sequence (P35355 18-604): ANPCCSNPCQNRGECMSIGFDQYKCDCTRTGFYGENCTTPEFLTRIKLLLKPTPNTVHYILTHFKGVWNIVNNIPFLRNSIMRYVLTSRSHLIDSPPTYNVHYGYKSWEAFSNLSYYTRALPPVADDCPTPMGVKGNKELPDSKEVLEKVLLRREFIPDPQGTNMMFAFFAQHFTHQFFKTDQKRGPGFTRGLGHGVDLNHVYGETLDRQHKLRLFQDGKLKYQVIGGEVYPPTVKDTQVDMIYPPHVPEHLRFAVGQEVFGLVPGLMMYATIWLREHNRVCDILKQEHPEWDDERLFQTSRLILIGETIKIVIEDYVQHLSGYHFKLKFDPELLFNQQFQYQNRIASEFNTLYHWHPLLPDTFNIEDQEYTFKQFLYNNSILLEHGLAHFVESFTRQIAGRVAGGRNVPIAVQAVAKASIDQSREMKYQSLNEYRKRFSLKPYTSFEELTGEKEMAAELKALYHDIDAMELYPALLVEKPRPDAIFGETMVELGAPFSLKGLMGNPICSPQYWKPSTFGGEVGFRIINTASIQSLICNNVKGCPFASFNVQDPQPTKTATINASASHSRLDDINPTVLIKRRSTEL
Put plainly: Colonic mucosal COX-2 activity after dietary treatment. It is filed as in vivo, male F344 rats. Particulars: 1800 ppm in diet; AOM-treated rats, colonic mucosa; Mean ± SEM. How it is done: as §3

Where [8] appears, read: 1800 ppm in diet, AOM-treated male F344 rats, Mean ± SEM.

Consider `CC(=NO)NC/C(F)=C\CC[C@H](N)C(=O)O` [Example G, (2S,5E)-2-amino-6-fluoro-7-[(1-hydroximinoethyl)amino]-5-heptenoic acid], for which the melting point lay in the range of 198 to 200 °C.

For `CC(=N)NCCCC[C@H](N)C(=O)Nc1nnn[nH]1` [Example NN, 2S-amino-6-[(1-iminoethyl)amino]-N-(1H-tetrazol-5-yl)hexanamide, hydrate, dihydrochloride], the i-NOS inhibitor potency result in data set [1] is “more potent”.

As to `CS(=O)(=O)c1ccc(C2=C(c3ccc(F)c(F)c3)C(=O)OC2)cc1` [MF-Tricyclic], in data set [2], the intestinal tumorigenesis result was “blocks”.

`N=C(N)NN` [aminoguanidine]: in data set [3] (setting [8]), the “Foci containing 1 Crypt” value was 28.0 ± 2.4, the “Foci containing 2 Crypt” value is on record as 29.3 ± 1.3, the “Foci containing 3 Crypt” value came out at 17.8 ± 1.0 and the “Foci containing ≧4 Crypts” value was 14.6 ± 1.8. Moreover, the “Total ACF incidence” value in data set [3] (setting [8]) is reported as 89.8 ± 4.5. The “effect on AOM-induced total colonic ACF and multicrypt clusters of 4 or more crypts” value in data set [3] (1,800 ppm, compared to control diet) was “suppressed”. In addition, the “NOS Activity, NOS” value in data set [4] was 7.9 ± 1.7 pmoles [^3H]-citrulline/mg pro. Further, the “suppression of AOM-induced colonic mucosal iNOS activity” value in data set [5] (1800 ppm) amounted to 50%. In data set [5] (1800 ppm in diet, AOM-treated rats, colonic mucosa, Mean ± SEM), the “NOS Activity, iNOS” value is 1.1 ± 0.1 pmoles [^3H]-citrulline/mg pro. The “COX-Activity, COX-1” value in data set [6] was 10.8 ± 1.9 pmoles [^14C]-AA metabolized/m. Moreover, the “COX-Activity, COX-2” value in data set [7] was 1.2 ± 0.2 pmoles [^14C]-AA metabolized/m.
